Results reported in paper PMC8253220, “Molecular design, synthesis and in vitro biological evaluation of thienopyrimidine–hydroxamic acids as chimeric kinase HDAC inhibitors: a challenging approach to combat cancer” (Journal of Enzyme Inhibition and Medicinal Chemistry, 2021).
Values joined by “and” are separate entries in the source; they are usually repeats but may differ in a detail not shown here. Equal values may be shown once.

Experiments:
Assay in all cases: NCI one-dose screen
Assay type in all cases: cell-based, human
KM12 = conditions: Colon KM12, 10 µM single dose
Description: (§1) All of the synthesised structures were selected and submitted to NCI based on computer modelling techniques and the degree of diversity of structures for the evaluation of their antiproliferative activity. The 20 synthesised compounds were selected with their respective NCI codes [NCS D-820157- NCS D-820176] for the inhibition percent assay at an initial single dose of 10 μM on the full NCI 60 cell panel, where the mean graph of the percent growth for all compounds on the full NCI cell panel is evaluated, compared to the untreated control cells (Supplementary Material). In vitro cell line inhibition % of all synthesised compounds is represented in (Table 1 of Supplementary Material).
(§2) All of the synthesised compounds (20) were submitted to NCI and selected for in vitro anticancer assay against a panel of 60 cancer cell lines. The methodology of assay and calculations is as reported.

NCI-H23 = conditions: NSCLC NCI-H23, 10 µM single dose
Description: as §1, §2

BT-549 = conditions: Breast BT-549, 10 µM single dose
Description: as §1, §2

SK-MEL-28 = conditions: Melanoma SK-MEL-28, 10 µM single dose
Description: as §1, §2

NCI-H522 = conditions: NSCLC NCI-H522, 10 µM single dose
Description: as §1, §2

SF-539 = conditions: CNS SF-539, 10 µM single dose
Description: as §1, §2

HCC-2998 = conditions: Colon HCC-2998, 10 µM single dose
Description: as §1, §2

LOX IMVI = conditions: Melanoma LOX IMVI, 10 µM single dose
Description: as §1, §2

SN12C = conditions: Renal SN12C, 10 µM single dose
Description: as §1, §2

OVCAR-5 = conditions: Ovarian OVCAR-5, 10 µM single dose
Description: as §1, §2

SF-268 = conditions: CNS SF-268, 10 µM single dose
Description: as §1, §2

NCI-H322M = conditions: NSCLC NCI-H322M, 10 µM single dose
Description: as §1, §2

SNB-19 = conditions: CNS SNB-19, 10 µM single dose
Description: as §1, §2

ACHN = conditions: Renal ACHN, 10 µM single dose
Description: as §1, §2

TK-10 = conditions: Renal TK-10, 10 µM single dose
Description: as §1, §2

OVCAR-3 = conditions: Ovarian OVCAR-3, 10 µM single dose
Description: as §1, §2

U251 = conditions: CNS U251, 10 µM single dose
Description: as §1, §2

MDA-MB-435 = conditions: Melanoma MDA-MB-435, 10 µM single dose
Description: as §1, §2

SF-295 = conditions: CNS SF-295, 10 µM single dose
Description: as §1, §2

K-562 = conditions: Leukemia K-562, 10 µM single dose
Description: as §1, §2

PC-3 = conditions: Prostate PC-3, 10 µM single dose
Description: as §1, §2

SR = conditions: Leukemia SR, 10 µM single dose
Description: as §1, §2

786-0 = conditions: Renal 786-0, 10 µM single dose
Description: as §1, §2

UACC-257 = conditions: Melanoma UACC-257, 10 µM single dose
Description: as §1, §2

RPMI-8226 = conditions: Leukemia RPMI-8226, 10 µM single dose
Description: as §1, §2

SK-OV-3 = conditions: Ovarian SK-OV-3, 10 µM single dose
Description: as §1, §2

HOP-92 = conditions: NSCLC HOP-92, 10 µM single dose
Description: as §1, §2

MDA-MB-231/ATCC = conditions: Breast MDA-MB-231/ATCC, 10 µM single dose
Description: as §1, §2

MCF7 = conditions: Breast MCF7, 10 µM single dose
Description: as §1, §2

HCT-116 = conditions: Colon HCT-116, 10 µM single dose
Description: as §1, §2

OVCAR-8 = conditions: Ovarian OVCAR-8, 10 µM single dose
Description: as §1, §2

HL-60(TB) = conditions: Leukemia HL-60(TB), 10 µM single dose
Description: as §1, §2

CAKI-1 = conditions: Renal CAKI-1, 10 µM single dose
Description: as §1, §2

MALME-3M = conditions: Melanoma MALME-3M, 10 µM single dose
Description: as §1, §2

NCI-H460 = conditions: NSCLC NCI-H460, 10 µM single dose
Description: as §1, §2

T-47D = conditions: Breast T-47D, 10 µM single dose
Description: as §1, §2

COLO 205 = conditions: Colon COLO 205, 10 µM single dose
Description: as §1, §2

SMILES | Growth Percent (KM12) | Growth Percent (NCI-H23) | Growth Percent (BT-549) | Growth Percent (SK-MEL-28) | Growth Percent (NCI-H522) | Growth Percent (SF-539) | Growth Percent (HCC-2998) | Growth Percent (LOX IMVI) | Growth Percent (SN12C) | Growth Percent (OVCAR-5) | Growth Percent (SF-268) | Growth Percent (NCI-H322M) | Growth Percent (SNB-19) | Growth Percent (ACHN) | Growth Percent (TK-10) | Growth Percent (OVCAR-3) | Growth Percent (U251) | Growth Percent (MDA-MB-435) | Growth Percent (SF-295) | Growth Percent (K-562) | further results
Cc1c(C(=O)NCCC(=O)NO)sc2ncnc(Nc3ccc(NC(=O)Nc4ccccc4)cc3)c12 [Compound 11a, 1–(4-(6-((3-(hydroxyamino)-3-oxopropyl)carbamoyl)-5-methylthieno[2,3-d]pyrimidin-4-ylamino)phenyl)-3-phenylurea] | 103.2% and 103.23% | 96.1% and 96.12% | 104.9% | 105.1% and 105.11% | 92.8% | 90.3% and 90.31% | 98.0% and 98.02% | 95.3% and 95.38% | 101.4% and 101.42% | 106.2% and 106.26% | 96.8% and 96.85% | 101.2% and 101.26% | 97.5% and 97.59% | 101.6% and 101.68% | 97.6% and 97.69% | 102.6% and 102.61% | 96.9% and 96.93% | 102.2% and 102.21% | 95.2% and 95.29% | 108.3% and 108.34% | Growth Percent (PC-3): 101.7% and 101.73%; Growth Percent (SR): 108.7% and 108.77%; Growth Percent (786-0): 98.2% and 98.21%; Growth Percent (UACC-257): 101.0% and 101.08%; Growth Percent (RPMI-8226): 109.4%; Growth Percent (SK-OV-3): 123.7% and 123.79%; Growth Percent (HOP-92): 106.7% and 106.72%; Growth Percent (MDA-MB-231/ATCC): 97.6% and 97.67%; Growth Percent (MCF7): 92.3%; Growth Percent (HCT-116): 102.9% and 102.94%; Growth Percent (OVCAR-8): 101.0% and 101.03%; Growth Percent (HL-60(TB)): 103.5% and 103.58%; Growth Percent (CAKI-1): 94.5% and 94.51%; Growth Percent (MALME-3M): 103.6% and 103.62%; Growth Percent (NCI-H460): 101.8% and 101.81%; Growth Percent (T-47D): 107.7% and 107.73%; Growth Percent (COLO 205): 113.5% and 113.57%
Cc1c(C(=O)NO)sc2ncnc(Nc3ccc(F)c(Cl)c3)c12 [Compound 15d, 4–(3-chloro-4-fluorophenylamino)-N-hydroxy-5-methylthieno[2,3-d]pyrimidine-6-carboxamide] | 102.3% and 102.31% | 95.7% and 95.72% | 114.0% and 114.08% | 109.6% and 109.62% | 88.1% and 88.16% | 98.5% and 98.57% | 102.4% and 102.42% | 101.3% and 101.32% | 100.1% and 100.14% | 101.3% and 101.35% | 96.5% | 107.6% and 107.66% | 91.8% | 97.6% and 97.62% | 118.5% and 118.53% | 108.5% and 108.52% | 98.2% | 101.0% and 101.03% | 93.7% and 93.74% | 105.3% and 105.38% | Growth Percent (PC-3): 110.4% and 110.42%; Growth Percent (SR): 101.4% and 101.45%; Growth Percent (786-0): 94.4% and 94.41%; Growth Percent (UACC-257): 109.9% and 109.91%; Growth Percent (SK-OV-3): 114.4% and 114.45%; Growth Percent (HOP-92): 120.5% and 120.52%; Growth Percent (MDA-MB-231/ATCC): 97.2% and 97.25%; Growth Percent (MCF7): 93.8% and 93.88%; Growth Percent (HCT-116): 106.8%; Growth Percent (OVCAR-8): 105.0% and 105.01%; Growth Percent (HL-60(TB)): 101.9% and 101.99%; Growth Percent (CAKI-1): 90.4% and 90.42%; Growth Percent (MALME-3M): 116.1% and 116.15%; Growth Percent (NCI-H460): 101.5% and 101.54%; Growth Percent (T-47D): 95.4% and 95.46%; Growth Percent (COLO 205): 112.3% and 112.34%
Cc1c(C(=O)NO)sc2ncnc(Nc3ccc(NC(=S)Nc4ccccc4)cc3)c12 [Compound 7d, 1–(4-(6-(hydroxycarbamoyl)-5-methylthieno[2,3-d]pyrimidin-4-ylamino)phenyl)-3-phenylthiourea] | 102.1% and 102.11% | 96.5% and 96.54% | 106.3% and 106.33% | 105.0% and 105.07% | 92.1% and 92.13% | 100.3% and 100.31% | 99.8% and 99.86% | 93.7% and 93.76% | 100.8% and 100.86% | 102.8% | 98.1% and 98.17% | 107.3% and 107.32% | 96.4% and 96.45% | 105.4% and 105.43% | 106.3% and 106.37% | 111.0% and 111.03% | 104.0% and 104.08% | 101.3% and 101.34% | 98.3% and 98.32% | 103.0% and 103.01% | Growth Percent (PC-3): 105.6% and 105.68%; Growth Percent (SR): 110.3% and 110.34%; Growth Percent (786-0): 99.1% and 99.11%; Growth Percent (UACC-257): 99.4% and 99.45%; Growth Percent (SK-OV-3): 120.7% and 120.74%; Growth Percent (HOP-92): 114.8% and 114.88%; Growth Percent (MDA-MB-231/ATCC): 94.9% and 94.96%; Growth Percent (MCF7): 95.2% and 95.28%; Growth Percent (HCT-116): 105.2% and 105.28%; Growth Percent (OVCAR-8): 103.1%; Growth Percent (HL-60(TB)): 102.7% and 102.72%; Growth Percent (CAKI-1): 96.5% and 96.56%; Growth Percent (MALME-3M): 99.4% and 99.48%; Growth Percent (NCI-H460): 102.0% and 102.05%; Growth Percent (T-47D): 112.9% and 112.91%; Growth Percent (COLO 205): 112.9% and 112.97%
